Data set [1] deals with DMS-114 cells (TP53 R213X). Nature of the data set: G418-induced PTC readthrough (full-length p53, capillary electrophoresis Western) in DMS-114 cells. Format: cell-based, human. As to conditions: for suppression of PTC readthrough induced by 400 μg/ml G418: 3 h preincubation with inhibitor, screen at two concentrations (Fig. 1C). An excerpt: (§1) Variation in PTC readthrough response has been reported among individuals or cell lines with different nonsense mutations. Although this in part highlights the importance of the stop codon and its surrounding sequence as well as the physical location of the nonsense mutation in the mRNA sequence, understanding the contribution of other underlying genetic variations becomes more complicated. To rule out the effect of the sequence and position of nonsense mutations on response variation to potential PTC readthrough modulators, we studied two cancer cell lines, DMS-114 and TC-71, with identical homozygous nonsense mutation R213X in their TP53 gene. […] To find out whether the reduced response to G418 in TC-71 cells was associated with lower intracellular levels of G418, we measured concentrations of G418 in both cell lines at 0, 8 and 24 h post exposure to G418 (100 μg/ml).
Figure 1 Effect of TRPC inhibitors on G418 induced PTC readthrough. A, DMS-114 and TC-71 cell lines with homozygous TP53 nonsense mutation (R213X) were exposed to indicated concentrations of G418 for 24 h and p53 levels (full-length, FL-p53; truncated, TR-p53) were measured. B, 100 μg/ml G418 was added to DMS-114 and TC-71 cells and its total intracellular levels were measured at indicated time points (n = 5; data normalized to the highest response in each experiment; bars represent mean ± SD). C, DMS-114 cells were preincubated with indicated concentrations of TRPC inhibitors GFB-8438 (GFB), SAR7334 (SAR), SKF96365 (SKF), 2-APB, or AC1903 for 3 h followed by exposure to 400 μg/ml G418 for another 3 h. At 24 h cell lysates were prepared and p53 levels were measured. In panels A and C, protein levels were measured by automated capillary electrophoresis Western analysis (using vinculin and GAPDH as loading controls). Samples of cell lysates containing equal amounts of total protein were loaded in all capillaries and FL-p53 levels were expressed relative to the amount of FL-p53 in untreated cells. ∗ indicates statistically significant difference between samples according to two-way ANOVA (p < 0.05). PTC, premature termination codon; TRPC, transient receptor potential canonical.
To further investigate AC1903 as a suppressor of G418-induced PTC readthrough, we exposed DMS-114 and TC-71 cells to various concentrations of AC1903 for 3 h prior to exposure to 400 μg/ml G418 for another 3 h, followed by media replacement and incubation for another 18 h.
(§2) Figure 2 Effect of AC1903 on PTC readthrough and G418 trafficking.A and B, DMS-114 (A) or TC-71 (B) cells were pretreated with indicated concentrations of AC1903 for 3 h followed by exposure to 400 μg/ml G418. After 3 h medium was replenished and at 24 h cell lysates were prepared and p53 levels were measured. C and E, DMS-114 (C) or JEB01 (E) cells were either left untreated or pretreated with 150 μM AC1903 for 3 h followed by exposure to indicated concentrations of G418 for another 3 h. At 24 h cell lysates were prepared and p53 (C) or Collagen XVII (E) levels were measured. In panels A–C, protein levels were measured by automated capillary electrophoresis Western analysis (using vinculin as loading control). In panel E, protein levels were measured by Western blot (using beta-actin as loading control). Samples of cell lysates containing equal amounts of total protein were loaded in all capillaries and FL-p53 or Collagen XVII levels were expressed relative to their respective amounts in untreated cells. D, total intracellular levels of G418 were measured in the same lysates as in (C) (n = 5; data normalized to the highest response in each experiment; bars represent mean ± SD). F, total intracellular levels of G418 were measured in the same lysates as in (E) (n = 2; data normalized to the highest response in each experiment; bars represent mean ± SD). ∗ indicates statistically significant difference between samples according to one-way ANOVA (p < 0.05). PTC, premature termination codon. […]

A further data set deals with TC-71 cells. Nature of the data set: Measurement of intracellular G418 (gentamicin ELISA) in TC-71 cells. In kind it is cell-based, human. The settings on record: 100 μg/ml G418.
Source text: as §1
(§3) Figure 1 Effect of TRPC inhibitors on G418 induced PTC readthrough. A, DMS-114 and TC-71 cell lines with homozygous TP53 nonsense mutation (R213X) were exposed to indicated concentrations of G418 for 24 h and p53 levels (full-length, FL-p53; truncated, TR-p53) were measured. B, 100 μg/ml G418 was added to DMS-114 and TC-71 cells and its total intracellular levels were measured at indicated time points (n = 5; data normalized to the highest response in each experiment; bars represent mean ± SD). […]
For orientation: ELISA stands for enzyme-linked immunosorbent assay.

In the next data set the test system is TC-71 cells (TP53 R213X). Put plainly: G418-induced PTC readthrough (full-length p53, capillary electrophoresis Western) in TC-71 cells. Format: cell-based. The settings on record: increasing concentrations of G418, 24 h.
Source text: as §1, §3

The subject of the next data set is hTRPV4. On the set-up: method as in PMID 23136043, PMID 28523109. As to conditions: cited from earlier work.
For data set [2], the system named is DMS-114 cells (TP53 R213X). Nature of the data set: G418-induced PTC readthrough (full-length p53, capillary electrophoresis Western) in DMS-114 cells. In kind it is cell-based, human.
The next data set has as its system DMS-114 cells. Nature of the data set: Measurement of intracellular G418 (gentamicin ELISA) in DMS-114 cells. Format: cell-based, human. As to conditions: Pico145 up to 3 μM, 400 μg/ml G418 (Fig. 3B). The procedure:
as §2, with “Samples of cell lysates containing equal amounts of total protein were loaded in all capillaries and FL-p53 or Collagen XVII levels were expressed relative to their respective amounts in untreated cells.” left out, “0.05).” for “0.05). PTC, premature termination codon.”

For the compound `NCCOB(c1ccccc1)c1ccccc1` [2-APB], the “suppression of PTC readthrough induced by 400 μg/ml G418” value (“suppression of PTC readthrough induced” for short) in data set [1] is around 66%.

Consider `CN[C@@H]1[C@@H](O)[C@@H](O[C@@H]2[C@@H](O)[C@H](O[C@H]3O[C@H]([C@@H](C)O)[C@@H](O)[C@H](O)[C@H]3N)[C@@H](N)C[C@H]2N)OC[C@]1(C)O` [G418], for which the figures for the “intracellular G418 level lower in TC-71 compared with DMS-114” value in the data set on TC-71 cells (8 h post exposure) and in the data set on TC-71 cells (24 h post exposure) were around 11% and around 9%, respectively. In addition, in data set [1] (increasing concentrations of G418, 24 h), the “increase in production of full-length p53 (readthrough product) compared with untreated cells” value is reported as “up to 144 fold”. Also, the “increase in PTC readthrough compared to untreated cells” value with TC-71 cells (TP53 R213X) is “up to eightfold”.

As to `O=C1CN(c2cn[nH]c(=O)c2Cl)CCN1Cc1ccccc1C(F)(F)F` [GFB-8438], in data set [1], the “suppression of PTC readthrough induced” value is “no effect”.

What is called IC50 is the concentration needed to halve the response being measured. Turning to `O=C(NC1(c2ccccc2)CC1)c1c(CN2CCC(N3CCCCC3)CC2)c(-c2cccc(C(F)(F)F)c2)nc2cc(Br)ccc12` [GSK2193874], the half-maximal inhibitory concentration (IC50) in the data set with hTRPV4 was 40 nM. Besides, the “effect on full-length p53 production” value in data set [2] (0.03–3 μM GSK2193874 alone or in combination with 400 μg/ml G418 (Fig. S12)) is listed as “did not have a major effect”.

As for `Cn1c(=O)n(CCCO)c(=O)c2c1nc(Oc1cccc(OC(F)(F)F)c1)n2Cc1ccc(Cl)cc1` [Pico145], in the data set on DMS-114 cells, the “effect on intracellular G418 levels” value is listed as “did not affect”. In data set [2] (Pico145 up to 3 μM, 400 μg/ml G418 (Fig. 3A)), the “effect on PTC readthrough” value is “did not affect”.

Consider `N#Cc1ccc(O[C@@H]2c3ccccc3C[C@H]2N2CCC[C@@H](N)C2)c(Cl)c1` [SAR7334], for which the “suppression of PTC readthrough induced” value in data set [1] is given as “no effect”.

`COc1ccc(CCCOC(Cn2ccnc2)c2ccc(OC)cc2)cc1` (stereo not drawn) [SKF96365]: the “suppression of PTC readthrough induced” value in data set [1] was around 33%.
